Measured values: ChEMBL document CHEMBL1143274, “Potent and selective inhibitors of Helicobacter pylori glutamate racemase (MurI): pyridodiazepine amines” (Bioorg Med Chem Lett, 2009)
pIC50: −log10 of the molar value. Converted amounts (≈) assume the structure as drawn.

How the values were obtained:
Glutamate racemase [1] = molecular target: T1, Glutamate racemase (Helicobacter pylori J99, UniProt Q9ZLT0); experiment: Inhibition of MurI in wild type Helicobacter pylori J99
T1 sequence (Q9ZLT0 whole entry): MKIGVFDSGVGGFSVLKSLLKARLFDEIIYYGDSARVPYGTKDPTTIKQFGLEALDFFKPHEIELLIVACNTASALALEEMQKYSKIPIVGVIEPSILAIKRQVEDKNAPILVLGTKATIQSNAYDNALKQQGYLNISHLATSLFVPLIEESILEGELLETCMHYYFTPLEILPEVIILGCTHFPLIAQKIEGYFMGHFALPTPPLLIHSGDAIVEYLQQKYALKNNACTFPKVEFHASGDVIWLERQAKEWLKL

Liver microsomes = experiment: Metabolic stability in human liver microsomes assessed as intrinsic clearance; assay type: ADME, Microsome; set-up: unit not given here
[2] = Metabolic stability in mouse liver microsomes assessed as intrinsic clearance; assay type: ADME, Microsome; set-up: unit not given here
Helicobacter pylori = experiment: Antimicrobial activity against Helicobacter pylori SS1 by NCCLS method; assay type: functional
[3] = Protein binding in mouse plasma; assay type: ADME, cell-free; details: read-out: PPB (converted)
[4] = Distribution coefficient, log D of the compound; assay type: physicochemical; details: octanol/water
Staphylococcus aureus = experiment: Antimicrobial activity against Staphylococcus aureus; assay type: functional
[5] = Inhibition of Escherichia coli MurI
Glutamate racemase [6] = molecular target: T2, Glutamate racemase (Enterococcus faecalis (strain ATCC 700802 / V583), UniProt Q836J0); experiment: Inhibition of Enterococcus faecalis MurI
T2 sequence (Q836J0 whole entry): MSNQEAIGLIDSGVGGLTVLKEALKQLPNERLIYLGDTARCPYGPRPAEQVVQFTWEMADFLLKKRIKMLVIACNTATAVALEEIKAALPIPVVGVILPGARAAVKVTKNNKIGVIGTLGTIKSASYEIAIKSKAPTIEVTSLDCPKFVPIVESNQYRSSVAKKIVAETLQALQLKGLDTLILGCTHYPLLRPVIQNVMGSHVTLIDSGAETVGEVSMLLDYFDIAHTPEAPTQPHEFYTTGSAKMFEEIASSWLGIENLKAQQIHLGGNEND

Enterococcus faecalis = experiment: Antimicrobial activity against Enterococcus faecalis; assay type: functional
[7] = Inhibition of Staphylococcus aureus MurI
Escherichia coli = experiment: Antimicrobial activity against Escherichia coli; assay type: functional

c1ccc(C2=NC(c3cccs3)C(N3CCCC3)=Nc3ccccc32)cc1 (stereo not given)
pIC50 (Glutamate racemase [1]): 5.40 | CL (Liver microsomes): 43 | CL [2]: 87 | MIC (Helicobacter pylori): 8 µg/mL (≈ 21.5 µM)

CNC1=Nc2nc(C)ccc2C(c2ccccc2)=NC1c1cccs1 (stereo not given)
fraction unbound [3]: 0.039 | pIC50 (Glutamate racemase [1]): 5.77 | CL (Liver microsomes): 73 | CL [2]: > 100 | MIC (Helicobacter pylori): 0.25 µg/mL (≈ 0.722 µM)

CNC1=Nc2c(ccc[n+]2[O-])C(c2ccccc2)=NC1c1cccs1 (stereo not given)
fraction unbound [3]: 0.353 | pIC50 (Glutamate racemase [1]): 4.17 | CL (Liver microsomes): < 14 | CL [2]: 41 | MIC (Helicobacter pylori): 16 µg/mL (≈ 45.9 µM)

COCCNC1=Nc2ccccc2C(c2ccccc2)=NC1c1cccs1 (stereo not given)
pIC50 (Glutamate racemase [1]): 4.72 | CL (Liver microsomes): 80 | CL [2]: > 100 | MIC (Helicobacter pylori): 32 µg/mL (≈ 85.2 µM)

CNC1=Nc2ncccc2C(c2cccs2)=NC1c1cccs1 (stereo not given)
fraction unbound [3]: 0.03 | pIC50 (Glutamate racemase [1]): 6.15 | CL (Liver microsomes): 30 | CL [2]: > 100 | MIC (Helicobacter pylori): 0.25 µg/mL (≈ 0.739 µM)

CNC1=Nc2ncccc2C(c2ccco2)=NC1c1ccns1 (stereo not given)
fraction unbound [3]: 0.264 | pIC50 (Glutamate racemase [1]): 5.06 | CL (Liver microsomes): 26 | CL [2]: 27 | MIC (Helicobacter pylori): 2 µg/mL (≈ 6.18 µM)

CNC1=Nc2ncccc2C(c2ccco2)=NC1c1cccs1 (stereo not given)
fraction unbound [3]: 0.182 | pIC50 (Glutamate racemase [1]): 5.70 | CL (Liver microsomes): 13 | CL [2]: 30 | MIC (Helicobacter pylori): 0.19 µg/mL (≈ 0.589 µM)

CNC1=Nc2ncccc2C(c2ccccc2)=NC1c1cccs1 (stereo not given)
fraction unbound [3]: 0.041 | pIC50 (Glutamate racemase [1]): 5.66 | CL (Liver microsomes): 40 | CL [2]: 82 | MIC (Helicobacter pylori): 0.17 µg/mL (≈ 0.511 µM)

c1ccc(C2=NC(c3cccs3)C(NC3CC3)=Nc3ccccc32)cc1 (stereo not given)
fraction unbound [3]: 0.03 | pIC50 (Glutamate racemase [1]): 5.96 | CL (Liver microsomes): 50 | CL [2]: 74 | MIC (Helicobacter pylori): 8 µg/mL (≈ 22.4 µM)

NC1=Nc2ccccc2C(c2ccccc2)=NC1c1cccs1 (stereo not given)
fraction unbound [3]: 0.02 | pIC50 (Glutamate racemase [1]): 3.40 | CL (Liver microsomes): > 100 | CL [2]: > 100 | MIC (Helicobacter pylori): 32 µg/mL (≈ 101 µM)

CNC1=Nc2ncccc2C(c2nccs2)=NC1c1cccs1 (stereo not given)
fraction unbound [3]: 0.17 | pIC50 (Glutamate racemase [1]): 5.77 | CL (Liver microsomes): < 14 | CL [2]: 33 | MIC (Helicobacter pylori): 1 µg/mL (≈ 2.95 µM)

CNC1=Nc2ncccc2C(c2ncco2)=NC1c1cccs1 (stereo not given)
fraction unbound [3]: 0.257 | pIC50 (Glutamate racemase [1]): 5.11 | CL (Liver microsomes): < 5 | CL [2]: 19 | MIC (Helicobacter pylori): 1 µg/mL (≈ 3.09 µM)

CNC1=Nc2ccc(Cl)cc2C(c2ccccc2)=NC1c1cccs1 (stereo not given)
pIC50 (Glutamate racemase [1]): 4.89 | CL (Liver microsomes): 52 | CL [2]: > 100 | MIC (Helicobacter pylori): 8 µg/mL (≈ 21.9 µM)

CNC1=Nc2ncccc2C(c2ccns2)=NC1c1cccs1 (stereo not given)
fraction unbound [3]: 0.241 | pIC50 (Glutamate racemase [1]): 5.96 | CL (Liver microsomes): 18 | CL [2]: 37 | MIC (Helicobacter pylori): 0.32 µg/mL (≈ 0.943 µM)

CNC1=Nc2ncccc2C(c2ccco2)=NC1c1sccc1Cl (stereo not given)
fraction unbound [3]: 0.013 | pIC50 (Glutamate racemase [1]): 5.55 | CL (Liver microsomes): 74 | CL [2]: > 150 | MIC (Helicobacter pylori): 0.5 µg/mL (≈ 1.4 µM)

CNC1=Nc2cncnc2C(c2ccccc2)=NC1c1cccs1 (stereo not given)
fraction unbound [3]: 0.158 | pIC50 (Glutamate racemase [1]): 4.30 | CL (Liver microsomes): 36 | CL [2]: 26 | MIC (Helicobacter pylori): 64 µg/mL (≈ 192 µM)

CNC1=Nc2ncccc2C(C2CCCC2)=NC1c1cccs1 (stereo not given)
fraction unbound [3]: 0.048 | pIC50 (Glutamate racemase [1]): 5.39 | CL (Liver microsomes): 59 | CL [2]: > 100 | MIC (Helicobacter pylori): 8 µg/mL (≈ 24.7 µM)

CNC1=Nc2ccccc2C(c2ccccc2)=NC1c1cccs1 (stereo not given)
fraction unbound [3]: 0.003 | pIC50 (Glutamate racemase [1]): 5.77 | CL (Liver microsomes): 43 | logD [4]: 4.1 | CL [2]: 97 | MIC (Helicobacter pylori): 0.5 µg/mL (≈ 1.51 µM) | MIC (Staphylococcus aureus): > 64 µg/mL | pIC50 [5]: < 3.40 | pIC50 (Glutamate racemase [6]): < 3.40 | MIC (Enterococcus faecalis): > 64 µg/mL | pIC50 [7]: < 3.40 | MIC (Escherichia coli): > 64 µg/mL

CCNC1=Nc2ccccc2C(c2ccccc2)=NC1c1cccs1 (stereo not given)
fraction unbound [3]: 0.003 | pIC50 (Glutamate racemase [1]): 5.96 | CL (Liver microsomes): 46 | CL [2]: > 100 | MIC (Helicobacter pylori): 2 µg/mL (≈ 5.79 µM)

CNC1=Nc2ncccc2C(c2cc[nH]c2)=NC1c1cccs1 (stereo not given)
fraction unbound [3]: 0.246 | pIC50 (Glutamate racemase [1]): 6.22 | CL (Liver microsomes): 19 | CL [2]: 36 | MIC (Helicobacter pylori): 0.4 µg/mL (≈ 1.24 µM)

OC1CN(C2=Nc3ccccc3C(c3ccccc3)=NC2c2cccs2)C1 (stereo not given)
fraction unbound [3]: 0.01 | MIC (Helicobacter pylori): 0.25 µg/mL (≈ 0.669 µM)

CNC1=Nc2ncccc2C(c2ccco2)=NC1c1ccco1 (stereo not given)
fraction unbound [3]: 0.193 | pIC50 (Glutamate racemase [1]): 4.73 | CL (Liver microsomes): 9 | CL [2]: 19 | MIC (Helicobacter pylori): 8 µg/mL (≈ 26.1 µM)

CCCNC1=Nc2ccccc2C(c2ccccc2)=NC1c1cccs1 (stereo not given)
pIC50 (Glutamate racemase [1]): 5.40 | CL (Liver microsomes): 30 | CL [2]: > 100 | MIC (Helicobacter pylori): 16 µg/mL (≈ 44.5 µM)

CNC1=Nc2ncccc2C(c2ccco2)=NC1c1cncs1 (stereo not given)
fraction unbound [3]: 0.391 | pIC50 (Glutamate racemase [1]): 5.07 | CL (Liver microsomes): 22 | CL [2]: 32 | MIC (Helicobacter pylori): 4 µg/mL (≈ 12.4 µM)

CNC1=Nc2ncccc2C(c2ccco2)=NC1c1cc(C#CC(C)O)cs1 (stereo not given)
fraction unbound [3]: 0.091 | pIC50 (Glutamate racemase [1]): 5.31 | CL (Liver microsomes): 7 | CL [2]: 17 | MIC (Helicobacter pylori): 4 µg/mL (≈ 10.2 µM)
